# Calls of active or inactive are those of the source. How the calls were made is not given here.
# Tested on: rodent carcinogenicity bioassays, tumor incidence
# Assay: CCRIS carcinogenicity studies
# Outline: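 Archive of carcinogenicity, mutagenicity, tumor promotion and tumor inhibition results drawn from journals, NCI reports and other sources, expert-reviewed; covers 1985-2011 and is no longer updated.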
smiles,measurement,setting,value
C=CCN(CC=C)N=O,carcinogen call,"Species: RAT, Strain/Sex: BDIX/FEMALE, Route: ORAL, Dose: 0, 20, 40, 80 MG/KG IN DRINKING WATER FOR DURATION OF STUDY (STUDY DURATION: LIFE TIME), Dose: 0, 20, 40, 80 MG/KG IN DRINKING WATER FOR DURATION OF STUDY (STUDY DURATION: LIFE TIME), Tumor Site: Type of Lesion: NASAL/PARANASAL CAVITY: TUMORS",active; positive
same,carcinogen call,"Species: RAT, Strain/Sex: BDIX/MALE, Route: ORAL, Dose: 0, 20, 40, 80 MG/KG IN DRINKING WATER FOR DURATION OF STUDY (STUDY DURATION: LIFE TIME), Dose: 0, 20, 40, 80 MG/KG IN DRINKING WATER FOR DURATION OF STUDY (STUDY DURATION: LIFE TIME), Tumor Site: Type of Lesion: NASAL/PARANASAL CAVITY: TUMORS",active; positive
O=Nc1cc2c3ccccc3ccc2c2ccccc12,carcinogen call,"Species: MOUSE, Strain/Sex: SWISS/FEMALE, Route: INTRAPERITONEAL, Dose: 0, 100 NMOL (TOTAL DOSE) 1/7, 2/7 AND 4/7 ADMINISTERED ON DAYS 1, 8 AND 15 OF LIFE RESPECTIVELY (STUDY DURATION: 32 WK), Tumor Site: Type of Lesion: LUNG: TUMOR",active; positive
same,carcinogen call,"Species: MOUSE, Strain/Sex: SWISS/MALE, Route: INTRAPERITONEAL, Dose: 0, 100 NMOL (TOTAL DOSE) 1/7, 2/7 AND 4/7 ADMINISTERED ON DAYS 1, 8 AND 15 OF LIFE RESPECTIVELY (STUDY DURATION: 32 WK), Tumor Site: Type of Lesion: LUNG: TUMOR, LIVER: TUMOR",active; positive
O=C(O)[C@H]1O[C@@H](Nc2ccc3c(c2)Cc2ccccc2-3)[C@H](O)[C@@H](O)[C@@H]1O,carcinogen call,"Species: RAT, Strain/Sex: F344/MALE, Route: INJECTION, Dose: 0;1 UMOL IN 0.5 ML OF SOLUTION CONTAINING 0.4 ML PHOSPHATE BUFFERED SALINE/ GENTAMYCIN (PH 7) AND 0.1 ML DMSO INJECTED I",inactive; negative
OCl,carcinogen call,"Species: RAT, Strain/Sex: SPRAGUE-DAWLEY/FEMALE, Route: ORAL, Dose: 0, 100, 500, 750 MG/L IN DRINKING WATER FOR 104 WK (STUDY DURATION: LIFETIME), Dose: 0, 100, 500, 750 MG/L IN DRINKING WATER FOR 104 WK (STUDY DURATION: LIFETIME), Tumor Site: Type of Lesion: LYMPHATIC SYSTEM: LYMPHOMA OR LEUKEMIA",active; positive
same,carcinogen call,"Species: RAT, Strain/Sex: SPRAGUE-DAWLEY/MALE, Route: ORAL, Dose: 0, 100, 500, 750 MG/L IN DRINKING WATER FOR 104 WK (STUDY DURATION: LIFETIME), Dose: 0, 100, 500, 750 MG/L IN DRINKING WATER FOR 104 WK (STUDY DURATION: LIFETIME)",inactive; negative
NC(=O)Cc1c([O-])on[n+]1Cc1ccccc1,carcinogen call,"Species: MOUSE, Strain/Sex: DDD/FEMALE, Route: ORAL, Dose: 0, 0.002, 0.01, 0.02% IN DRINKING WATER FOR 12 MO (STUDY DURATION: 12 MO), Dose: 0, 0.002, 0.01, 0.02% IN DRINKING WATER FOR 12 MO (STUDY DURATION: 12 MO), Tumor Site: Type of Lesion: LIVER: HEPATOCELLULAR CARCINOMA",active; positive
same,carcinogen call,"Species: MOUSE, Strain/Sex: DDD/MALE, Route: ORAL, Dose: 0, 0.02% IN DRINKING WATER FOR 12 MO (STUDY DURATION: 12 MO)",inactive; negative
same,carcinogen call,"Species: RAT, Strain/Sex: DONRYU/FEMALE, Route: ORAL, Dose: 0, 60, 200, 400 PPM IN DRINKING WATER FOR 41 WK (STUDY DURATION: 104 WK), Dose: 0, 60, 200, 400 PPM IN DRINKING WATER FOR 41 WK (STUDY DURATION: 104 WK), Tumor Site: Type of Lesion: LIVER: TUMOR",active; positive
same,carcinogen call,"Species: RAT, Strain/Sex: DONRYU/MALE, Route: ORAL, Dose: 0, 20 PPM IN DIET FOR 104 WK (STUDY DURATION: 104 WK)",inactive; negative
same,carcinogen call,"Species: RAT, Strain/Sex: DONRYU/MALE, Route: ORAL, Dose: 0, 60, 200 PPM IN DIET FOR 15 WK (STUDY DURATION: 104 WK), Dose: 0, 60, 200 PPM IN DIET FOR 15 WK (STUDY DURATION: 104 WK), Tumor Site: Type of Lesion: LIVER: TUMOR",active; positive
same,carcinogen call,"Species: RAT, Strain/Sex: DONRYU/MALE, Route: ORAL, Dose: 0, 60 PPM IN DRINKING WATER FOR 41 WK (STUDY DURATION: 104 WK), Tumor Site: Type of Lesion: LIVER: TUMOR",active; positive
OCCO,carcinogen call,"Species: MOUSE, Strain/Sex: B6C3F1/FEMALE, Route: ORAL, Dose: 0, 12500, 25000, 50000 PPM IN DIET FOR 721 D (STUDY DURATION: 105 WK), Dose: 0, 12500, 25000, 50000 PPM IN DIET FOR 721 D (STUDY DURATION: 105 WK)",inactive; negative
same,carcinogen call,"Species: MOUSE, Strain/Sex: B6C3F1/MALE, Route: ORAL, Dose: 0, 6250, 12500, 25000 PPM IN DIET FOR 721 D (STUDY DURATION: 105 WK), Dose: 0, 6250, 12500, 25000 PPM IN DIET FOR 721 D (STUDY DURATION: 105 WK)",inactive; negative
CC1CN(N=O)CC(C)N1C (stereo unspecified),carcinogen call,"Species: RAT, Strain/Sex: F344/FEMALE, Route: ORAL, Dose: 0, 110 MG/L IN DRINKING WATER 5 D/WK FOR 26 WK, STUDY DURATION: 40-50 WK, Dose: 0, 110 MG/L IN DRINKING WATER 5 D/WK FOR 26 WK, STUDY DURATION: 40-50 WK, Tumor Site: Type of Lesion: THYMUS GLAND: LYMPHOMA OR LEUKEMIA, MULTIPLE SITES: LYMPHOMA OR LEUKEMIA, NASAL CAVITY: CARCINOMA, Tumor Site: Type of Lesion: THYMUS GLAND: LYMPHOMA OR LEUKEMIA, MULTIPLE SITES: LYMPHOMA OR LEUKEMIA, NASAL CAVITY: CARCINOMA",active; positive
O=[N+]([O-])c1c2ccccc2cc2c3ccccc3c3ccccc3c12,carcinogen call,"Species: MOUSE, Strain/Sex: B6C3F1/MALE, Route: INTRAPERITONEAL, Dose: 0, 400 NMOL IN 35 µL DMSO ON DAYS 1 (1/7 TOTAL DOSE), 8 (2/7 TOTAL DOSE), AND 15 (4/7 TOTAL DOSE) AFTER BIRTH (STUDY DUR",inactive; negative
ClC1C(Cl)C(Cl)C(Cl)C(Cl)C1Cl (stereo unspecified),carcinogen call,"Species: MOUSE, Strain/Sex: B6C3F1/FEMALE, Route: ORAL, Dose: 0, 80, 160 PPM IN DIET FOR 80 WK (STUDY DURATION: 90-91 WK), Dose: 0, 80, 160 PPM IN DIET FOR 80 WK (STUDY DURATION: 90-91 WK)",inactive; negative
same,carcinogen call,"Species: MOUSE, Strain/Sex: CF-1/MALE,FEMALE, Route: ORAL, Dose: 200 MG/KG IN DIET, Tumor Site: Type of Lesion: LIVER: BENIGN TUMOR OR MALIGNANT TUMOR",active; positive
same,carcinogen call,"Species: MOUSE, Strain/Sex: CF-1/MALE,FEMALE, Route: ORAL, Dose: 400 MG/KG IN DIET, Tumor Site: Type of Lesion: LIVER: BENIGN TUMOR OR MALIGNANT TUMOR",active; positive
same,carcinogen call,"Species: MOUSE, Strain/Sex: DD/MALE, Route: ORAL, Dose: 0, 6.6, 66, 660 PPM IN BASAL DIET UNTIL SACRIFICE AT 24 WK (STUDY DURATION: 24 WK), Dose: 0, 6.6, 66, 660 PPM IN BASAL DIET UNTIL SACRIFICE AT 24 WK (STUDY DURATION: 24 WK), Tumor Site: Type of Lesion: LIVER: HEPATOMA",active; positive
same,carcinogen call,"Species: MOUSE, Strain/Sex: MALE,FEMALE, Route: ORAL, Tumor Site: Type of Lesion: LIVER: BENIGN TUMOR OR MALIGNANT TUMOR",active; positive
same,carcinogen call,"Species: RAT, Strain/Sex: OSBORNE-MENDEL/FEMALE, Route: ORAL, Dose: 0, 135, 270 PPM TWA, IN DIET FOR 80 WK (STUDY DURATION: 108-110 WK), Dose: 0, 135, 270 PPM TWA, IN DIET FOR 80 WK (STUDY DURATION: 108-110 WK)",inactive; negative
same,carcinogen call,"Species: RAT, Strain/Sex: OSBORNE-MENDEL/MALE, Route: ORAL, Dose: 0, 236, 472 PPM TWA, IN DIET FOR 80 WK (STUDY DURATION: 109-110 WK), Dose: 0, 236, 472 PPM TWA, IN DIET FOR 80 WK (STUDY DURATION: 109-110 WK)",inactive; negative
same,carcinogen call,"Species: Rat, Strain/Sex: Wistar/Female (50/Group), Route: Oral, Dose: 0, 0.06, 0.57, 5.6, 23.1 mg/kg/day of 99.5-99.7% lindane in diet for 18 mo, study duration 18 mo, Dose: 0, 0.06, 0.57, 5.6, 23.1 mg/kg/day of 99.5-99.7% lindane in diet for 18 mo, study duration 18 mo",inactive; negative
same,carcinogen call,"Species: Rat, Strain/Sex: Wistar/Male (50/Group), Route: Oral, Dose: 0, 0.05, 0.45, 4.5, 18.7 mg/kg/day of 99.5-99.7% lindane in diet for 18 mo, study duration 18 mo, Dose: 0, 0.05, 0.45, 4.5, 18.7 mg/kg/day of 99.5-99.7% lindane in diet for 18 mo, study duration 18 mo",inactive; negative

# Source: PubChem BioAssay AID1259411 (Chemical Carcinogenesis Research Information System (CCRIS), 2018)
